Key:
Test in all cases: KINOMEscan competitive binding
[1] = target: T1, TRKC (Homo sapiens, UniProt Q16288); conditions: n=1, read-out: Percent inhibition, TRKC
T1 construct: purchased DiscoverX (KINOMEscan)

[2] = target: T2, TLK1 (Homo sapiens, UniProt Q9UKI8); conditions: n=1, read-out: Percent inhibition, TLK1
T2 construct: purchased DiscoverX (KINOMEscan)
T2 sequence (Q9UKI8 1-766): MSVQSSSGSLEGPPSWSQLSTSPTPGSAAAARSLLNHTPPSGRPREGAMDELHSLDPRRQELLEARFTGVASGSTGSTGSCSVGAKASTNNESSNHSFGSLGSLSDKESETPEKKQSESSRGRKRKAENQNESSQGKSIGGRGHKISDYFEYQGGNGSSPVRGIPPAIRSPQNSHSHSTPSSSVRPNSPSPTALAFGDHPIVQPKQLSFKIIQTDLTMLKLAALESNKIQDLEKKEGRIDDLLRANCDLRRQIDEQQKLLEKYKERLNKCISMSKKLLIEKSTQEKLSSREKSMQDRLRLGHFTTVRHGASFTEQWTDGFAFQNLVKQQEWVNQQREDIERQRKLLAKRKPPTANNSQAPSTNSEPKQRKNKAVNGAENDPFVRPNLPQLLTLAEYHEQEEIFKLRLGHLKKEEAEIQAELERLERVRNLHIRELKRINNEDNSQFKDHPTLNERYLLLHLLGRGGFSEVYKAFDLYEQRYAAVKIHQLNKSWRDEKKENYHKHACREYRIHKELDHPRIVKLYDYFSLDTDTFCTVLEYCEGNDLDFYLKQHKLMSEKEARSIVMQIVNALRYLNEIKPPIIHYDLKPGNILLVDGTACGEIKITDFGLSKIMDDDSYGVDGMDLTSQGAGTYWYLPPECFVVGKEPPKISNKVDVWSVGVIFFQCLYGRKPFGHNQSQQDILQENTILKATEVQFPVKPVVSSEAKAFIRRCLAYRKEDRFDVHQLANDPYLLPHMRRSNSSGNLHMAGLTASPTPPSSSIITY

[3] = target: T3, TLK2 (Homo sapiens, UniProt Q86UE8); conditions: n=1, read-out: Percent inhibition, TLK2
T3 construct: purchased DiscoverX (KINOMEscan)

[4] = target: T4, PKN2 (Homo sapiens, UniProt Q16513); conditions: n=1, read-out: Percent inhibition, PKN2
T4 construct: purchased DiscoverX (KINOMEscan)

[5] = target: T5, SNF1LK2 (Homo sapiens, UniProt Q9H0K1); conditions: n=1, read-out: Percent inhibition, SNF1LK2
T5 construct: purchased DiscoverX (KINOMEscan)

[6] = target: T6, RPS6KA4(Kin.Dom.1) (Homo sapiens, UniProt O75676); conditions: n=1, read-out: Percent inhibition, RPS6KA4(Kin.Dom.1)
T6 construct: RPS6KA4(Kin.Dom.1); purchased DiscoverX (KINOMEscan)
T6 sequence (O75676 1-371 limits assumed): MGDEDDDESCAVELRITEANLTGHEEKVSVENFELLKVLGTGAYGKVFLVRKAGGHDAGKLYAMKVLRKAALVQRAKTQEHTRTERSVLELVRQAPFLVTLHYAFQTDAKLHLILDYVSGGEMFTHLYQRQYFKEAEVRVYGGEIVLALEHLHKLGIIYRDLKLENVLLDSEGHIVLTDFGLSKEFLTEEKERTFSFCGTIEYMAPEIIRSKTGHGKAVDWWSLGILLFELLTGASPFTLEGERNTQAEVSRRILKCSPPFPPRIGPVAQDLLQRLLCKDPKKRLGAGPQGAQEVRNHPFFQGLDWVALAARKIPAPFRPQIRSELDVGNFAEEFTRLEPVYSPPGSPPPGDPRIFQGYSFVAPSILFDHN

[7] = target: T7, PRKG1 (Homo sapiens, UniProt Q13976); conditions: n=1, read-out: Percent inhibition, PRKG1
T7 construct: purchased DiscoverX (KINOMEscan)
T7 sequence (Q13976 1-671): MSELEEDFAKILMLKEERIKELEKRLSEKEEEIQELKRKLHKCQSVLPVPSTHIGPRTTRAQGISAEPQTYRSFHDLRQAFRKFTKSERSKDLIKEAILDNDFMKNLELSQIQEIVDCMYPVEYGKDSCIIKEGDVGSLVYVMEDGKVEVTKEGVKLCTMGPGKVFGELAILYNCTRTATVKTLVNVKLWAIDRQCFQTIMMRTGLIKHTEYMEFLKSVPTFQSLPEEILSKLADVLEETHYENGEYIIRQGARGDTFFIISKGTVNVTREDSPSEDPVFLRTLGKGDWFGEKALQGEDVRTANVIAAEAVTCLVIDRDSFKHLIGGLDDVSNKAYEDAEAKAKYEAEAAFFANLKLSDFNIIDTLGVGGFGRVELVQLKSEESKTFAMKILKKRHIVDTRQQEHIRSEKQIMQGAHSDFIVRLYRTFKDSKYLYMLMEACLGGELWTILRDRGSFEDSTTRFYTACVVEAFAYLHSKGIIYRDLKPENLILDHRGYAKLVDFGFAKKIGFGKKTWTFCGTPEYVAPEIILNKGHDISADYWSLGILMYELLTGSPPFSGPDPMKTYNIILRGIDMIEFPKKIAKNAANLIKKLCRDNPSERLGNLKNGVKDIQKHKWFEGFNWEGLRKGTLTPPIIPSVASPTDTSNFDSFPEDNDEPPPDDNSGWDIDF

[8] = target: T8, PKAC-beta (Homo sapiens, UniProt P22694); conditions: n=1, read-out: Percent inhibition, PKAC-beta
T8 construct: purchased DiscoverX (KINOMEscan)

T3 sequence (Q86UE8 whole entry): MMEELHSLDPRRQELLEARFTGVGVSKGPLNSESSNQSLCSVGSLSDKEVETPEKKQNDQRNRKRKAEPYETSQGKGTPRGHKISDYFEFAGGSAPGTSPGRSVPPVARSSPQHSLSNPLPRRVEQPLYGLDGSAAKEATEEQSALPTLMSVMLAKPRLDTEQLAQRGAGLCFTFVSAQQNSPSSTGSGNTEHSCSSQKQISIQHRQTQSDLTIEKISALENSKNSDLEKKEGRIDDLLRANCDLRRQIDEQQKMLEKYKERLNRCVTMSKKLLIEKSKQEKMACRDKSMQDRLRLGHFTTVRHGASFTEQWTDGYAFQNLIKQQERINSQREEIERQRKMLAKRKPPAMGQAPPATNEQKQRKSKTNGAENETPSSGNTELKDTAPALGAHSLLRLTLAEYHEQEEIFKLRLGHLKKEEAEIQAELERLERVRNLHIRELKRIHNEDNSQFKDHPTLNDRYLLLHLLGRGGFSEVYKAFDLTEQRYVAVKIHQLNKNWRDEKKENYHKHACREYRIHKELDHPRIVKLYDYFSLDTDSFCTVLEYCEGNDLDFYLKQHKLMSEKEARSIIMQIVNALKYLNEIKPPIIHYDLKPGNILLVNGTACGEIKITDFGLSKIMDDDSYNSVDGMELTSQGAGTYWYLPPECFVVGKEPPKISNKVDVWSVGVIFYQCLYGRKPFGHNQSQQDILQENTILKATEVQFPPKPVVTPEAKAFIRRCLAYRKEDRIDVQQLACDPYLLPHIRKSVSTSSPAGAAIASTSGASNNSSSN
T4 sequence (Q16513 whole entry): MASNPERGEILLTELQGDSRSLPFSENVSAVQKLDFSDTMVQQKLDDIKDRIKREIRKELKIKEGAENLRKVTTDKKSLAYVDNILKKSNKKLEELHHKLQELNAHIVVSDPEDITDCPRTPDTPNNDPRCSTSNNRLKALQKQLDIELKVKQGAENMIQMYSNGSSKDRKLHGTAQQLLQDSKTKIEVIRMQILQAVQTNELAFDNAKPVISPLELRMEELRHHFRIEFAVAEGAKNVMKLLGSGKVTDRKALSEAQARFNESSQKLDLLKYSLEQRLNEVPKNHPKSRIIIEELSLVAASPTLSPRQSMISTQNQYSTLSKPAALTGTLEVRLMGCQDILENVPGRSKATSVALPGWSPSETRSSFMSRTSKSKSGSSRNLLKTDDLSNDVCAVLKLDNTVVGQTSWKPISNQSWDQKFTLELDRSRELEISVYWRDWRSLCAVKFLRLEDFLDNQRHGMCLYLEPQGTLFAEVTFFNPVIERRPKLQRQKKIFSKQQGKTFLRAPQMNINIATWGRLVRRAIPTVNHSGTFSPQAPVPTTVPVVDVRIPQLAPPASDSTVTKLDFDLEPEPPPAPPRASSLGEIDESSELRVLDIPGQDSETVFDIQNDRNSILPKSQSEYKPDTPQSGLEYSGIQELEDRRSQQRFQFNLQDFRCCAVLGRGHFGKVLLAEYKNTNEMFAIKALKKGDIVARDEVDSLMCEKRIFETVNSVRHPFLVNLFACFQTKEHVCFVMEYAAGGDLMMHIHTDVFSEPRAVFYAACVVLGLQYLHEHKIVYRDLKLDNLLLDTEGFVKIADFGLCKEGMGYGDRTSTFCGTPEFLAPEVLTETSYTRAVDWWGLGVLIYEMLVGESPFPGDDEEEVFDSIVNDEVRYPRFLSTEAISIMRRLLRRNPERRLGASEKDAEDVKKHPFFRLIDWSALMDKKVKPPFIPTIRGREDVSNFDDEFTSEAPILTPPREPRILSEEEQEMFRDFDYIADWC
T5 sequence (Q9H0K1 whole entry): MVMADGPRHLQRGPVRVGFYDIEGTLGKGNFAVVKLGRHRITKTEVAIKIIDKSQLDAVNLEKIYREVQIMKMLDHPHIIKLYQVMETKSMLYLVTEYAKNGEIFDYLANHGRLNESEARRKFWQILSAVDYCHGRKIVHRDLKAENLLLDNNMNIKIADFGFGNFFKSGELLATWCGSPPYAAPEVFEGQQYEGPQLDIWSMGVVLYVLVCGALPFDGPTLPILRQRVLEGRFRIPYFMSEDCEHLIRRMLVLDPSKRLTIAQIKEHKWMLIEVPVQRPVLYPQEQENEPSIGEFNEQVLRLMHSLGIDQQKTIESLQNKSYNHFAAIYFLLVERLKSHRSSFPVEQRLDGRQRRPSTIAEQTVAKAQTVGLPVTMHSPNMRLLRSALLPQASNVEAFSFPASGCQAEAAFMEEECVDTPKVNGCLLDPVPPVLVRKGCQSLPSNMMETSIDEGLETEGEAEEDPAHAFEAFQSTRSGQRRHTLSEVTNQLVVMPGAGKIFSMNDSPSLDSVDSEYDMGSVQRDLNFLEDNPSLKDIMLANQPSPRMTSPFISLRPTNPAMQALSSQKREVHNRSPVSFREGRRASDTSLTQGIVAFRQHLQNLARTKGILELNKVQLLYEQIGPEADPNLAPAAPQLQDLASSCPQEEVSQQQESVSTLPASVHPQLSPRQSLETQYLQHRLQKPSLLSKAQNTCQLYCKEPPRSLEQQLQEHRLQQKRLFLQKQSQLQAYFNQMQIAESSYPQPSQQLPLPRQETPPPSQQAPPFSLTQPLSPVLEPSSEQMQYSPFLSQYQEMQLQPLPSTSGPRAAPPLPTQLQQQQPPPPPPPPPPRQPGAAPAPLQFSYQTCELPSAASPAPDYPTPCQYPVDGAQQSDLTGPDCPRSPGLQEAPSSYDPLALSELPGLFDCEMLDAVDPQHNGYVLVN
T1 sequence (Q16288 32-839): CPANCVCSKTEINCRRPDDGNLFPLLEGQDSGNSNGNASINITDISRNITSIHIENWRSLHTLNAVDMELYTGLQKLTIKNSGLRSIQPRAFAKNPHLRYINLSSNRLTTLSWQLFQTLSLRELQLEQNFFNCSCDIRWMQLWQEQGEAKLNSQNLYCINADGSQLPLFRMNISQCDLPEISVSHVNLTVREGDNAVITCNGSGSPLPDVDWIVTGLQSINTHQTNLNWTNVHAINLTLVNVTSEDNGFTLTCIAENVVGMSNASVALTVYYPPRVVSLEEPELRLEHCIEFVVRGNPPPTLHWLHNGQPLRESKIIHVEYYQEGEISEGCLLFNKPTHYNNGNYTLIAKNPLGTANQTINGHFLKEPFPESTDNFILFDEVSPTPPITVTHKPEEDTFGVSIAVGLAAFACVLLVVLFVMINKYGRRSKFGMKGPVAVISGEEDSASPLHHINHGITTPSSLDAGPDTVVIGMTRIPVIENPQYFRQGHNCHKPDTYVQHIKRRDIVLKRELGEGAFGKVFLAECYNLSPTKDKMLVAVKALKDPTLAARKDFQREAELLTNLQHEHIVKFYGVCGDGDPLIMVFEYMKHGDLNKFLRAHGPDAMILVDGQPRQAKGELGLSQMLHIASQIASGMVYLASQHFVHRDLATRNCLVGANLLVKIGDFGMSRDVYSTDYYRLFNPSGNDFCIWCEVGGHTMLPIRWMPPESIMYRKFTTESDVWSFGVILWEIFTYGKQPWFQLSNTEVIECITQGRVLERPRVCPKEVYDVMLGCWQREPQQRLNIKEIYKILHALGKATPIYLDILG

SMILES	inhibition at 10 µM [1] [%]	inhibition at 10 µM [2] [%]	inhibition at 10 µM [3] [%]	inhibition at 10 µM [4] [%]	inhibition at 10 µM [5] [%]	inhibition at 10 µM [6] [%]	inhibition at 10 µM [7] [%]	inhibition at 10 µM [8] [%]
CN1CCN(c2ccc(Nc3nccc(-c4cnn5ncccc45)n3)cc2C#N)CC1 [Compound 1]	82.8	99.2	98.7	67.8	69.9	0	0	0
COc1ccc(Nc2nccc(-c3cnn4ncccc34)n2)cc1 [Compound 2]	0	0	0	0	0	0	0	0
Cc1ccc(O)cc1Nc1ccnc(Nc2cccc(C(N)=O)c2)n1 [Compound 3]	0	0	0	0	96.7	0	0	0
Cc1ccc(O)cc1N(C)c1ccnc(Nc2cccc(S(N)(=O)=O)c2)n1 [Compound 4]	90	0	0	0	95.1	0	0	77.8
Fc1cccc(COc2ccc(Nc3ncnc4c3CN(CCN3CCOCC3)CC4)cc2Cl)c1 [Compound 6]	0	0	0	71.4	0	0	0	0
COc1cc(Nc2nccc(-c3sc(N)nc3-c3cccc(NC(=O)c4c(F)cccc4F)c3)n2)cc(OC)c1OC [Compound 7]	0	0	0	0	99.4	98.9	0	0
C[C@@H](Oc1cc(-c2cnc3ccccn23)sc1C(N)=O)c1ccccc1Cl [Compound 8]	0	0	0	79.3	0	0	0	0
c1ccc(COc2cccc(-c3ccnc4[nH]ccc34)c2)cc1 [Compound 9]	0	0	0	0	0	0	0	0
Clc1ccc(Nc2ncc(-c3ccccc3)s2)cc1 [Compound 10]	0	0	0	0	0	0	0	0
Nc1ncc2c(-c3ccncc3)c[nH]c2n1 [Compound 11]	0	0	0	0	0	0	0	0

— article PMC9927415, “Tyrosine Kinase Inhibitors Display Potent Activity against Cryptosporidium parvum” (Microbiology Spectrum, 2022)
